Assay results published in ChEMBL document CHEMBL1201862, “PubChem BioAssay data set” (2004).
Active and inactive are the calls of the source.

How the values were obtained:
Cytochrome P450 2D6 = Cytochrome P450 2D6 (Homo sapiens, UniProt P10635);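 also: CYP2D6 member of a cytochrome P450 panel assay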
[1] = molecular target: T1, High affinity choline transporter 1 (Homo sapiens, UniProt Q9GZV3); experiment: human choline transporter blockers, potency – cell-based, 5-point CRC, membrane potential dye, dose response (AID 504840); assay type: functional
T1 sequence (Q9GZV3 whole entry): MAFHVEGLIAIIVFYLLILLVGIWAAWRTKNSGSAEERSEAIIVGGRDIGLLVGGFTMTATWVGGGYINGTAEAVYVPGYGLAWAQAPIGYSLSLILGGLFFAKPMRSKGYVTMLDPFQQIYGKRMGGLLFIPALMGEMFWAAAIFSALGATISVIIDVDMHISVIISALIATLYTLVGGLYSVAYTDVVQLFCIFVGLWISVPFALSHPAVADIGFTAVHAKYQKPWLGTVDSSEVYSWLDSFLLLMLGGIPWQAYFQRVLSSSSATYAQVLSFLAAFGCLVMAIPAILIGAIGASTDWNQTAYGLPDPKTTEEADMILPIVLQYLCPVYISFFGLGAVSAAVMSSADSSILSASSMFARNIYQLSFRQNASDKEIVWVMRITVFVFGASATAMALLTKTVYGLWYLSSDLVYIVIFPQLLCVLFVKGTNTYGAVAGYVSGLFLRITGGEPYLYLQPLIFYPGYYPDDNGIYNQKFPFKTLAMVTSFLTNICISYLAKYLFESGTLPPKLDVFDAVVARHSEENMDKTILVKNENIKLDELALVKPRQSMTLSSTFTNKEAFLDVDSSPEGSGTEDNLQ

[2] = molecular target: T1, High affinity choline transporter 1; experiment: human choline transporter blockers, potency – cell-based, 10-point CRC, membrane potential dye, dose response (AID 588401); assay type: functional;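 also: membrane potential dye fluorescence of choline-evoked depolarization via CHT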
Keap1/Nrf2 = Keap1/Nrf2 (Homo sapiens, UniProt Q14145); experiment: disruptors of Keap1 binding to Nrf2 peptide – biochemical, fluorescence polarization, cherry-picked samples, dose response (AID 588683)
Keap1/Nrf2, sequence (Q16236 whole entry): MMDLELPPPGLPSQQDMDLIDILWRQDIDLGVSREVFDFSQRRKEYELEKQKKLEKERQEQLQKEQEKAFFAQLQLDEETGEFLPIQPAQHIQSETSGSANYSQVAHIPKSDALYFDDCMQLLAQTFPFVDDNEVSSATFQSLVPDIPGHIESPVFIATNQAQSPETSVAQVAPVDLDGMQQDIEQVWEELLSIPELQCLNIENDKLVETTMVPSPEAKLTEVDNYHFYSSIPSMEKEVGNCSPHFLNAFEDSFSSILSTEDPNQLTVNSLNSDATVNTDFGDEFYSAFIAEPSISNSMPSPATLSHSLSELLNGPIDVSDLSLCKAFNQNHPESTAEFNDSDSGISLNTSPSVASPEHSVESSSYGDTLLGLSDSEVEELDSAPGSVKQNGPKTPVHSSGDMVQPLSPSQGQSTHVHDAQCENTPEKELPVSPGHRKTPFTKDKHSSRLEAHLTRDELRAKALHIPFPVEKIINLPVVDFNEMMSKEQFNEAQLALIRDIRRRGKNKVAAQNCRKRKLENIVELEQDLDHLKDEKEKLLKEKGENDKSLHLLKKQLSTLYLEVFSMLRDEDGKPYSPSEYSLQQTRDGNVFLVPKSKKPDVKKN
Keap1/Nrf2, sequence (Q14145 whole entry): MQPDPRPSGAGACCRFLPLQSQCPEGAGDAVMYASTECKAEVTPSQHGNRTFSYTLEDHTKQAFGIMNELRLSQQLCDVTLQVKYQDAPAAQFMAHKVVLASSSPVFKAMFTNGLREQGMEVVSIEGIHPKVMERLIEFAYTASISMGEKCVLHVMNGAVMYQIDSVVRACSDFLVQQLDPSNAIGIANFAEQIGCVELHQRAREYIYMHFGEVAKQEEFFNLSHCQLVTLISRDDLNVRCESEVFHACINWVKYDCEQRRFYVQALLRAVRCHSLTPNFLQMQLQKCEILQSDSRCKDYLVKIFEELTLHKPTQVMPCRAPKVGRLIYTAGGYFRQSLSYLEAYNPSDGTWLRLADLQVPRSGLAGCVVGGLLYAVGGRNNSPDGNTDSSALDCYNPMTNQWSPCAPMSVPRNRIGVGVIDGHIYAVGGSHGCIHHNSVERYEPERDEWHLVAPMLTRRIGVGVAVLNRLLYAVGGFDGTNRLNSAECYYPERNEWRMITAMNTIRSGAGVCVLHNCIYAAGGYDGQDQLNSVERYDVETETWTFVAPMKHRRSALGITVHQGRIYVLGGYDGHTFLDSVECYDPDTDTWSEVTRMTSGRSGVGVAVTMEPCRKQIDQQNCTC

Escherichia coli [3] = experiment: microbe, parasite or virus in culture
Cysteine protease ATG4B = molecular target: T2, Cysteine protease ATG4B (Homo sapiens, UniProt Q9Y4P1); assay type: functional;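 also: Fluorescence-based dose-response confirmation assay measuring inhibition of ATG4B activity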
T2 sequence (Q9Y4P1 whole entry): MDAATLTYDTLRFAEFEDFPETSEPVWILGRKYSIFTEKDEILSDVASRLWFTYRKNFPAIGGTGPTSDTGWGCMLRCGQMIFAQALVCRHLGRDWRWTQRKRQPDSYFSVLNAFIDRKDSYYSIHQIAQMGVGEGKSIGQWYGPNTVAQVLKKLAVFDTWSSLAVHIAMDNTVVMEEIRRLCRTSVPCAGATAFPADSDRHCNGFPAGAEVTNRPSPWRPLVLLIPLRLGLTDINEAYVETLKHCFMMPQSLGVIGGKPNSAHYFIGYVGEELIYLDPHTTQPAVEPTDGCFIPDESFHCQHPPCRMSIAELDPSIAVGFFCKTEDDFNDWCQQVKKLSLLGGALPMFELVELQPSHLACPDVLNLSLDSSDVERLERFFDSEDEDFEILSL

Phospholipase A2 = Phospholipase A2 (Homo sapiens, UniProt P04054); assay type: functional;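 also: confirmatory dose-response counterscreen on phospholipase A2, testing hits that came from an ultra-high-throughput screen for ATG4B inhibitors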
Phospholipase A2, sequence (P04054 whole entry): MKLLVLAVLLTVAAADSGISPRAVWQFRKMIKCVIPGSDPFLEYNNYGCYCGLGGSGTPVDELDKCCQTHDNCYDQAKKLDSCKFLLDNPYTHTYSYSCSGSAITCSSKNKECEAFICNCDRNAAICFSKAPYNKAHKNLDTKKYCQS

Protein Tat = molecular target: T3, Protein Tat (Human immunodeficiency virus type 1 group M subtype B (isolate HXB2)(HIV-1), UniProt P04608); assay type: functional;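 also: tat binding to TAR RNA read out by fluorescence polarization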
T3 sequence (P04608 whole entry): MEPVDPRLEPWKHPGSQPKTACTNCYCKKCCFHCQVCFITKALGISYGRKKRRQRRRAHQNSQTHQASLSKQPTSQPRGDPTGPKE

Escherichia coli [4] = experiment: microbe, parasite or virus in culture; remark: listed apart in the source
CHO = CHO cell viability loss, potency – luminescence, cytotoxicity control for TLR9-MyD88 binding inhibitor project, dose response (AID 588339); assay type: functional, cell-based, hamster; conditions: Cricetulus griseus;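 also: CHO cells stably coexpressing TLR9 and MyD88 fusions from primary screen; compound exposure lasted 48 hours before viability readout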
Beta Lactamase = Beta Lactamase (Pseudomonas aeruginosa, UniProt Q932Y6); experiment: BLA reporter interference, concentration series – BLA reporter cells, FRET fluorescence, artefact control for TLR9-MyD88 binding inhibitor project, dose response (AID 588341); assay type: cell-based;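 also: cell based assay in CHO-K1 cells stably expressing beta-lactamase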
Beta Lactamase, sequence (Q932Y6 whole entry): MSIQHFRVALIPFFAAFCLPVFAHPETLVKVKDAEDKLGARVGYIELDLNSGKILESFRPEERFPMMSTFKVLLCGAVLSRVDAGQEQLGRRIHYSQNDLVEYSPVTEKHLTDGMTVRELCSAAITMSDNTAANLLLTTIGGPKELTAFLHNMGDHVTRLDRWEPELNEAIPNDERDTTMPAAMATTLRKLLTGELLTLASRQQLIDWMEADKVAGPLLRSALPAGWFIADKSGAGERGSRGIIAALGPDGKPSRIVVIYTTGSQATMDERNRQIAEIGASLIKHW

[5] = molecular target: Peroxisome proliferator-activated receptor gamma/Nuclear receptor coactivator 1 (Homo sapiens, UniProt P37231); experiment: (§1) TR-FRET dose response biochemical High Throughput Screening assay for agonists of the steroid receptor coactivator 1 (SRC-1) recruitment by the peroxisome proliferator-activated receptor gamma (PPAR gamma): non-selective agonists. [Related pubchem assays (depositor defined):AID1300, AID1808, AID504735, AID631]; assay type: protein assay
Peroxisome proliferator-activated receptor gamma/Nuclear receptor coactivator 1, sequence (P37231 whole entry): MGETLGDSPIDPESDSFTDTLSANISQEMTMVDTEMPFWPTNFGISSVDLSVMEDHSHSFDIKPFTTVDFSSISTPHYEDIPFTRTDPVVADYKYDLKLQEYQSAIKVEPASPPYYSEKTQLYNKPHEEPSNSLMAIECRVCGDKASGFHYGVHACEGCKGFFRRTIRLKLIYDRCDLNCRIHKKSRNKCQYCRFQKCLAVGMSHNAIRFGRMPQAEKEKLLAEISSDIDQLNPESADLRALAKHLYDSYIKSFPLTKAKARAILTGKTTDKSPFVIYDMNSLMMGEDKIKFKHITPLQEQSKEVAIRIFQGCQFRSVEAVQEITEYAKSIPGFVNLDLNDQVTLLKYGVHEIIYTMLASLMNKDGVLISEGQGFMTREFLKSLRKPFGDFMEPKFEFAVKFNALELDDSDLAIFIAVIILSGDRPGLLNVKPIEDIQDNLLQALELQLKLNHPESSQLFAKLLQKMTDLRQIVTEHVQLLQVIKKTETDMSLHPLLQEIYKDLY
Peroxisome proliferator-activated receptor gamma/Nuclear receptor coactivator 1, sequence (Q15788 whole entry, further chain): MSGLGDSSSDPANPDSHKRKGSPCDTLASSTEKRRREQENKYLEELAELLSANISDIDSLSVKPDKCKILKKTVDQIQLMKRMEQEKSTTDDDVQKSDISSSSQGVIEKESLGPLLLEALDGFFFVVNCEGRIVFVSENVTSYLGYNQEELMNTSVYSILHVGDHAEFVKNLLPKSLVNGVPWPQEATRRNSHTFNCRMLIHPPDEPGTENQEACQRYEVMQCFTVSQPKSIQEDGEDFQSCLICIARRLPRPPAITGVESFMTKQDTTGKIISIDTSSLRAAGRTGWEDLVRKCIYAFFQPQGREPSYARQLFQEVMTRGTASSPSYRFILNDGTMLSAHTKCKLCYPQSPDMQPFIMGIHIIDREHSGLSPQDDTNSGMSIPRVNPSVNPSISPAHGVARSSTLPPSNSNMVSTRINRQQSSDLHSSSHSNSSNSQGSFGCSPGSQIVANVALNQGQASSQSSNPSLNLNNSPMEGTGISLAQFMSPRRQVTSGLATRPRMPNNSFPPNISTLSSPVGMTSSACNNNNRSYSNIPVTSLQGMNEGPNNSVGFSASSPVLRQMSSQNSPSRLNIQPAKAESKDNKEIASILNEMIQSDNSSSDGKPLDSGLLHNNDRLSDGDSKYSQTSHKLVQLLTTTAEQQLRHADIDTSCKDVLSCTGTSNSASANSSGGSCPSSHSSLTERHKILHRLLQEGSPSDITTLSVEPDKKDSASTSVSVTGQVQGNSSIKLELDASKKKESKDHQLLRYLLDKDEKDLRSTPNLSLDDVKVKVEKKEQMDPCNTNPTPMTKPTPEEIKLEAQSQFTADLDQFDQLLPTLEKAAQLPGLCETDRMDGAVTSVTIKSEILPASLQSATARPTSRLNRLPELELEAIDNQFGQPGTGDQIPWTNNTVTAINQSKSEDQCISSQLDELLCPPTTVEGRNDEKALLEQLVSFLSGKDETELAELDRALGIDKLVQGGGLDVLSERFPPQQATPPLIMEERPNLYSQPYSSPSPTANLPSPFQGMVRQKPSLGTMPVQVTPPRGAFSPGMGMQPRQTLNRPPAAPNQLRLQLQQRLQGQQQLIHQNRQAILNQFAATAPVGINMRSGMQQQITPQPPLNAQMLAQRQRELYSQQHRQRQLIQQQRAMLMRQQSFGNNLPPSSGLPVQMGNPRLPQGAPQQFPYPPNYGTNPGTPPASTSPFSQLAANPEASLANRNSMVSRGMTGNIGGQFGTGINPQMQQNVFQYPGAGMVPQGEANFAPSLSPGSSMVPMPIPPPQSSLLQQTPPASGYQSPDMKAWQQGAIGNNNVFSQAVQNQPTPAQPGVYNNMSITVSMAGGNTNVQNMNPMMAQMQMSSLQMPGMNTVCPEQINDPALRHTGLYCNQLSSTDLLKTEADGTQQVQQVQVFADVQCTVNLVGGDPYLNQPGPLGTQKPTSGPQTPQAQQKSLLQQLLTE

[6] = molecular target: Peroxisome proliferator-activated receptor gamma/Nuclear receptor coactivator 3 (Homo sapiens, UniProt P37231); experiment: as §1, with “3 (SRC-3)” for “1 (SRC-1)”, “assays: 1301 (Confirmation screen.), 1048 (Primary screen.)]” for “assays (depositor defined):AID1300, AID1808, AID504735, AID631]”; assay type: functional
[7] = molecular target: Peroxisome proliferator-activated receptor gamma/Nuclear receptor coactivator 2 (Homo sapiens, UniProt P37231); experiment: TR-FRET dose response biochemical High Throughput Screening assay for agonists of the steroid receptor coactivator 2 (SRC-2) recruitment by the peroxisome proliferator-activated receptor gamma (PPAR gamma): non-selective agonists. [Related pubchem assays: 1297, 1032 ]; assay type: functional
Cytochrome P450 2C19 = Cytochrome P450 2C19 (Homo sapiens, UniProt P33261); experiment: Cytochrome panel assay with activity outcomes. Panel member name: p450-cyp2c19 Compounds with AC50 equal or less than 10 uM are considered active; assay type: functional; conditions: read-out: AC50
Cytochrome P450 2C9 = Cytochrome P450 2C9 (Homo sapiens, UniProt P11712)
[8] = NIH-3T3 fibroblast cytotoxicity, dose response, cytotoxicity control, cell-based, fluorescence, Alamar Blue, secondary assay (AID 2327); assay type: functional;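 also: NIH-3T3 mouse fibroblasts cultured with fluconazole at 8 µg/mL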
[9] = tested on: Streptococcus sp. 'group A'; experiment: Streptococcus pyogenes SK(-)GAS viability under kanamycin – luminescence, BacTiterGlo, confirmation, counter-screen for streptokinase expression inhibitor project, dose response (AID 1900); assay type: functional, organism-based
[10] = fluconazole-exposed Candida albicans growth modulators – fluorescence, retest, confirmation (AID 2467); assay type: functional, cell-based
[11] = molecular target: T4, Serine/threonine-protein phosphatase (Candida dubliniensis (strain CD36 / CBS 7987 / NCPF 3949 / NRRLY-17841) (Yeast), UniProt B9W6M3); experiment: blockers of CaCl2-induced CDRE-lacZ signaling – S. cerevisiae, luminescence, secondary, dose response (AID 2388); assay type: functional, cell-based;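 also: yeast reporter cells carrying a calcineurin-responsive lacZ construct stimulated with calcium chloride; luminescent beta-galactosidase reporter signal in whole cells rather than isolated phosphatase activity; potency for inhibition where a drop in reporter signal means calcineurin blockade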
T4 sequence (B9W6M3 whole entry): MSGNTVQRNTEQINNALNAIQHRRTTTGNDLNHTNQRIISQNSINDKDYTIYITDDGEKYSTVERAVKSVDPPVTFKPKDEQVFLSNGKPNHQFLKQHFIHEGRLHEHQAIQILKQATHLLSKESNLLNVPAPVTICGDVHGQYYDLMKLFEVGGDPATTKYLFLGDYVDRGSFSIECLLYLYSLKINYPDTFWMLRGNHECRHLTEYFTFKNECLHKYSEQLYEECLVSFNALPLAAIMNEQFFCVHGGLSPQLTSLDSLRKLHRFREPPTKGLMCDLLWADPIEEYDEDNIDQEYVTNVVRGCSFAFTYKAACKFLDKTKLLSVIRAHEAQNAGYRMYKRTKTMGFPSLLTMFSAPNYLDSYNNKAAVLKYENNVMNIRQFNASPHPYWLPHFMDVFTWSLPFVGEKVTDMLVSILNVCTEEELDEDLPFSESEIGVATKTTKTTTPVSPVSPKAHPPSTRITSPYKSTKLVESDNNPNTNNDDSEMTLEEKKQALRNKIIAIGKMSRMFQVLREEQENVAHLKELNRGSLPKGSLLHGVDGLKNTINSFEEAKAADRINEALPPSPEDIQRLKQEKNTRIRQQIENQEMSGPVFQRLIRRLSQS

Streptococcus = experiment: GAS UMAA2166 growth inhibition – luminescence, BacTiterGlo, counter-screen for streptokinase expression inhibitor project, dose response (AID 1915); assay type: functional, organism-based;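 also: potency for reduction of bacterial viability or growth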
[12] = molecular target: Heat shock protein HSP 90-alpha (Homo sapiens, UniProt P07900); assay type: functional, organism-based
[13] = molecular target: ATP-dependent molecular chaperone HSP82 (Candida albicans (strain WO-1) (Yeast), UniProt C4YTQ8); experiment: steroid-induced GRE reporter decrease in yeast – S. cerevisiae, luminescence, Hsp90 inhibitor project, dose response (AID 2400); assay type: functional, cell-based;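 also: beta-galactosidase luminescence from glucocorticoid response element reporter as proxy for Hsp90 function; inhibitor potency where signal loss means Hsp90 inhibition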
ATP-dependent molecular chaperone HSP82, sequence (C4YTQ8 whole entry): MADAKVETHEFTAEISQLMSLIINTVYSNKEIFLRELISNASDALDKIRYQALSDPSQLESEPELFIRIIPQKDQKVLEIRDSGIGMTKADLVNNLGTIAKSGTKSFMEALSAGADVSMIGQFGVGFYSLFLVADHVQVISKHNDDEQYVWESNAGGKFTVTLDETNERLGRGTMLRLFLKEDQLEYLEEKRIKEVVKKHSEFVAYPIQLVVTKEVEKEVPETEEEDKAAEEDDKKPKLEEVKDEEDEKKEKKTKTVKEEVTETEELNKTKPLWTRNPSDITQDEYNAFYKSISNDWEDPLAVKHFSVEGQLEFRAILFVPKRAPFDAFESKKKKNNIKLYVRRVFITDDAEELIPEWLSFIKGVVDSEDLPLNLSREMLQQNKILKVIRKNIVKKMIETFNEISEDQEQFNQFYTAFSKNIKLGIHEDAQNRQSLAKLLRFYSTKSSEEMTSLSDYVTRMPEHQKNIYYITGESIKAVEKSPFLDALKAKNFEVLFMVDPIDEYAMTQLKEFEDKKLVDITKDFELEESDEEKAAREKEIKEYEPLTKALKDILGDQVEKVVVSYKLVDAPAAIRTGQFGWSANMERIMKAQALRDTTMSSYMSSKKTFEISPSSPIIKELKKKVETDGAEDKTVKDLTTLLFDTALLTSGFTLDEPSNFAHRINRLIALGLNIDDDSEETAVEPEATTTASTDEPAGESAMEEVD

[14] = molecular target: T5, Apoptotic protease-activating factor 1 (Homo sapiens, UniProt O14727); experiment: SAR analysis of small molecule inhibitors of Apaf-1 in a Fluorescent assay.; assay type: functional; conditions: read-out: IC50_Mean
T5 sequence (O14727 whole entry): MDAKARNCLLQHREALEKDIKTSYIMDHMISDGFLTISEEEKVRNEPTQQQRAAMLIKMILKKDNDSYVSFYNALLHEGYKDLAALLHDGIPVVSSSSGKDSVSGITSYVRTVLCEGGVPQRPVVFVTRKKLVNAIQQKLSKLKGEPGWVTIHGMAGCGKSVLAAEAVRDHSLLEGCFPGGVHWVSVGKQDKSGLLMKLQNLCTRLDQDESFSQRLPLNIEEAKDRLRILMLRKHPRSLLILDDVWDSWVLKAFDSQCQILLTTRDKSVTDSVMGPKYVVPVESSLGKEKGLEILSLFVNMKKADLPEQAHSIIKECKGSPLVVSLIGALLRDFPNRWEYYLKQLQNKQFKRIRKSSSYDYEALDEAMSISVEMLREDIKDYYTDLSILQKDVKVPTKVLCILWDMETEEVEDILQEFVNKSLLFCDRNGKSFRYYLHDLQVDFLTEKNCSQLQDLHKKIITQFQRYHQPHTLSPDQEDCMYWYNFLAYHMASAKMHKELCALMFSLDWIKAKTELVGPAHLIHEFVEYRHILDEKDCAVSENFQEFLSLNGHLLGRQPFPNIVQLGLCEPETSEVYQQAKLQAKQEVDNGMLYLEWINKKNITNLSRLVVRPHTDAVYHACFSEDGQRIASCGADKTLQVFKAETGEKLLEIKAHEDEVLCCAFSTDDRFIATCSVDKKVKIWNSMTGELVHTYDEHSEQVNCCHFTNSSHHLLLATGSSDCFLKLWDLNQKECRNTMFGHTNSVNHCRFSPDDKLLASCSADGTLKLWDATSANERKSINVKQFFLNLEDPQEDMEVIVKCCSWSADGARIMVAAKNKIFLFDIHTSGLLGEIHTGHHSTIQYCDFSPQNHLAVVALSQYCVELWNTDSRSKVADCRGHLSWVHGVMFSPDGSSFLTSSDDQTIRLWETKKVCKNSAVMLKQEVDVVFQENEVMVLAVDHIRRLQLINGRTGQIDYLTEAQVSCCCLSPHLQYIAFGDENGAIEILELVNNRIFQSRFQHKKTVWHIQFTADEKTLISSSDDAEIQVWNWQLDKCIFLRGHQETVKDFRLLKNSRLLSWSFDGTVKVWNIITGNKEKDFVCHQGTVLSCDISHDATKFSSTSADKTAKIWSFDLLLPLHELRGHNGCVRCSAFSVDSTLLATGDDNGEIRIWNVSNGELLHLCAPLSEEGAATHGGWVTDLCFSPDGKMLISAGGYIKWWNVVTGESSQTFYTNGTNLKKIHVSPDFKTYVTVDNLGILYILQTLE

cells [15] = assay type: functional, cell-based
[16] = microbe, parasite or virus in culture; assay type: functional; conditions: Mycobacterium tuberculosis
cells [17] = assay type: functional, cell-based; remark: listed apart in the source
[18] = HEK-293T viability loss after treatment – luminescence, T-cell screen hits, cytotoxicity control for TCR NF-kB inhibitor project, dose response (AID 489026); assay type: functional, cell-based;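 also: cells exposed to compound about 14 hours before the viability readout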
INS1 = experiment: INS-1E survival protection against cytokine death – cell-based, luminescence, retest, dose response (AID 449756); assay type: functional; conditions: Rattus norvegicus;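 also: cell death triggered by IL-1 beta plus TNF-alpha plus IFN-gamma mixture; protective hits raise ATP signal compared with cytokine alone wells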

Cytochrome P450 2D6, sequence (P10635 whole entry): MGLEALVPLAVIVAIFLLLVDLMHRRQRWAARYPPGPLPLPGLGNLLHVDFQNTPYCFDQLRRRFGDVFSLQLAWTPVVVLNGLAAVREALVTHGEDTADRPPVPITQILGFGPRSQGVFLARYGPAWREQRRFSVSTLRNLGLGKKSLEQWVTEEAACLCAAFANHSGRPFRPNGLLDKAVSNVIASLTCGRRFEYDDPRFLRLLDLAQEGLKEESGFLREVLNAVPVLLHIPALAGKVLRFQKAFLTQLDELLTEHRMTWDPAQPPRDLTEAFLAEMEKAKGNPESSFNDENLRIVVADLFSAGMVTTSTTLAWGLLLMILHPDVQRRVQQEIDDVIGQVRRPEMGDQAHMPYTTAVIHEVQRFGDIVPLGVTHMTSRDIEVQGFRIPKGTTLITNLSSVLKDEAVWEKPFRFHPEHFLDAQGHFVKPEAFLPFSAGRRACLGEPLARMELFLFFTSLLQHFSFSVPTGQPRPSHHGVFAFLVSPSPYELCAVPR

## C[C@]12CC[C@H]3c4ccc(O)cc4CC[C@@H]3[C@H]1C/C(=N/O)[C@H]2O
Cytochrome P450 2D6
  AC50: inconclusive

## Cc1ccc(C(C)NC(=O)C2CCCC2)cc1C (stereo not drawn)
[1]
  IC50: 8.58 µM (active)
[2]
  IC50: 6.48 µM (active)

## CN1CC=C2C(C#N)=C(N)C(C#N)(C#N)[C@H](c3cccs3)[C@H]2C1
Keap1/Nrf2
  AC50: > 52 µM (inactive)

## O=C(CCSc1ccccc1)NCC1CCCO1 (stereo not drawn)
Escherichia coli [3]
  AC50: 30.4 µM (active)

## CN(C)[C@@H]1C(O)=C(C(N)=O)C(=O)[C@@]2(O)C(O)=C3C(=O)c4c(O)ccc(Cl)c4[C@@](C)(O)C3C[C@@H]12 (stereo partly drawn)
Cysteine protease ATG4B
  IC50: 6.14 µM (active)
Phospholipase A2
  IC50: 5.75 µM (active)
Protein Tat
  IC50: > 100 µM (active)
Escherichia coli [3]
  AC50: 47 µM (active)
Escherichia coli [4]
  AC50: 1.2 µM (active)

## CC(=O)c1sc2nc(-c3ccc(C)cc3)c3c(c2c1N)CCCC3
CHO
  IC50: 36.7 µM (inactive)
Beta Lactamase
  IC50: 3.73 µM (active)

## CCn1c(=O)cc(SCC(=O)Nc2cc(OC)c(OC)c(OC)c2)c2ccccc21
[5]
  EC50: > 79.4 µM (inactive)
[6]
  EC50: > 79.4 µM (not active)
[7]
  EC50: 76.2 µM (not active)
Cytochrome P450 2C19
  AC50: 0.355 µM (inconclusive)
Cytochrome P450 2D6
  AC50: inconclusive
Cytochrome P450 2C9
  AC50: inconclusive

## Oc1c(C(c2ccc(Cl)cc2)N2CCCC2)cc(Cl)c2cccnc12 (stereo not drawn)
[8]
  EC50: 15 µM (active)
[9]
  EC50: 1.34 µM (active)
[10]
  EC50: 0.135 µM (active)
[11]
  EC50: > 180 µM (inactive)
Streptococcus
  EC50: 1.41 µM (active)
[12]
  AC50: 2.02 µM (active)
[13]
  EC50: 22.5 µM (active)

## CN(CC(=O)NCc1cccnc1)S(=O)(=O)c1ccccc1
Escherichia coli [4]
  AC50: 54.1 µM (active)

## CCN(CC)CCOC(=O)c1ccc(N/C=C(\C#N)c2nc(-c3cccs3)cs2)cc1
[14]
  IC50: 13.7 µM (active)

## CCN(CC)CCOC(=O)c1ccc(N/C=C(\C#N)c2nc(-c3ccc(Br)cc3)cs2)cc1
[14]
  IC50: 14.7 µM (active)

## COc1cccc(/C=N/Nc2ncnc3scc(-c4ccccc4)c23)c1O
[8]
  EC50: > 150 µM (inactive)
Cells [15]
  EC50: 2.21 µM (active)
[10]
  EC50: 0.753 µM (active)
[16]
  CC50: 1.31 µM (active)
Cells [17]
  EC50: > 350 µM (not active)
[11]
  EC50: > 180 µM (inactive)
[18]
  IC50: 62.5 µM (inactive)
[12]
  AC50: 24.5 µM (active)
INS1
  AC50: 0.432 µM (active)
[13]
  EC50: 17.7 µM (active)
